From ChEMBL document CHEMBL1128401, “Structure-activity relationships in the 8-amino-6,7,8,9-tetrahydro-3H-benz[e]indole ring system. 1. Effects of substituents in the aromatic system on serotonin and dopamine receptor subtypes” (J Med Chem, 1995)
The source made the active and inactive calls. The rule behind the calls is not given here.

How the values were obtained:
[1] = molecular target: T1, 5-hydroxytryptamine receptor 1A (Rattus norvegicus, UniProt P19327); assay: Binding affinity against 5-hydroxytryptamine 1A receptor from CHO-K1 cells, using [3H]8-OH-DPAT as the radioligand.; type: cell-based
T1 sequence (P19327 whole entry): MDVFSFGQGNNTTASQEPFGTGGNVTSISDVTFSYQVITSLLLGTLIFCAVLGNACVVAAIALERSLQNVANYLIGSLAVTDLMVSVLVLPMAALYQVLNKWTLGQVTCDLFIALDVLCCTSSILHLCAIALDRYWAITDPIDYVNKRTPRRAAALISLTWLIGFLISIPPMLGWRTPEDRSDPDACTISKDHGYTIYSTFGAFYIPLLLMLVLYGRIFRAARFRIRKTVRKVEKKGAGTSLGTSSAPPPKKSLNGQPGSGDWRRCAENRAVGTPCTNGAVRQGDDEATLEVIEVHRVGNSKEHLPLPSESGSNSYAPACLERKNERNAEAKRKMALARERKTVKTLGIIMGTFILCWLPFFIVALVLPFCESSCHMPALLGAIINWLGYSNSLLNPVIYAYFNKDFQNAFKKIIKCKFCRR

[2] = molecular target: 5-hydroxytryptamine receptor 1B (Homo sapiens, UniProt P28222); assay: Binding affinity against 5-hydroxytryptamine 1D receptor beta expressed in CHO-K1 cells, using [3H]5-HT as the radioligand.; type: cell-based; conditions: read-out: Ki
[3] = molecular target: 5-hydroxytryptamine receptor 1D (Homo sapiens, UniProt P28221); assay: Binding affinity against 5-hydroxytryptamine 1D receptor alpha expressed in CHO-K1 cells, using [3H]-5-HT as the radioligand.; type: cell-based; conditions: read-out: Ki
D(2) dopamine receptor [4] = molecular target: T2, D(2) dopamine receptor (Rattus norvegicus, UniProt P61169); assay: Binding affinity against Dopamine receptor D2 from CHO-K1 cells, using [3H]U-86,170 as the radioligand.; type: cell-based
D(3) dopamine receptor [5] = molecular target: T3, D(3) dopamine receptor (Rattus norvegicus, UniProt P19020); assay: Binding affinity against Dopamine receptor D3 from CHO-K1 cells, using [3H]spiperone as the radioligand.; type: cell-based; conditions: read-out: Ki
Rattus norvegicus [6] = assay: In vivo for 5-HTP accumulation in corpus striatum against reserpine-pretreated rats.; type: functional
Rattus norvegicus [7] = assay: In vivo for 5-HTP accumulation in hemispheres (cortex) against reserpine-pretreated rats.; type: functional
Rattus norvegicus [8] = assay: In vivo for 5-HTP accumulation in limbic system against reserpine-pretreated rats.; type: functional
Rattus norvegicus [9] = assay: Compound was tested in vivo for DOPA accumulation in corpus striatum against reserpine-pretreated rats; type: functional
Rattus norvegicus [10] = assay: The Compound was tested in vivo for DOPA accumulation in hemispheres (cortex) against reserpine-pretreated rats;I= inactive at the highest dose tested (50).; type: functional, organism-based
Rattus norvegicus [11] = assay: In vivo for DOPA accumulation in limbic system against reserpine-pretreated rats.; type: functional
D(2) dopamine receptor [12] = molecular target: T2, D(2) dopamine receptor; assay: Binding affinity against Dopamine receptor D2 expressed in CHO-K1 cells, using [3H]U-86170 as the radioligand.; type: cell-based
D(3) dopamine receptor [13] = molecular target: T3, D(3) dopamine receptor; assay: The compound was tested in vitro for binding affinity against cloned mammalian Dopamine receptor D3 expressed in CHO cells by, using [3H]spiperone as radioligand; type: cell-based
Rattus norvegicus [14] = assay: The compound was tested in vivo for DOPA accumulation in hemispheres (cortex) against reserpine-pretreated rats; I= inactive at the highest dose tested (12.5).; type: functional, organism-based
Rattus norvegicus [15] = assay: compound was tested in vivo for DOPA accumulation in corpus striatum against reserpine-pretreated rats; P=significant partial reduction only at the highest dose tested (12.5).; type: functional, organism-based
Rattus norvegicus [16] = assay: compound was tested in vivo for 5-HTP accumulation in corpus striatum against reserpine-pretreated rats, activity expressed as ED50; type: functional
Rattus norvegicus [17] = assay: compound was tested in vivo for 5-HTP accumulation in hemispheres (cortex) against reserpine-pretreated rats(; type: functional
Rattus norvegicus [18] = assay: compound was tested in vivo for 5-HTP accumulation in limbic system against reserpine-pretreated rats,; type: functional
Rattus norvegicus [19] = assay: The compound was tested in vivo for DOPA accumulation in hemispheres (cortex) against reserpine-pretreated rats;I= inactive at the highest dose tested; type: functional, organism-based
Rattus norvegicus [20] = assay: compound was tested in vivo for 5-HTP accumulation in corpus striatum against reserpine-pretreated rats, activity expressed as ED50; inactive at the highest dose tested; type: functional
Rattus norvegicus [21] = assay: compound was tested in vivo for 5-HTP accumulation in limbic system against reserpine-pretreated rats; inactive at the highest dose tested; type: functional
Rattus norvegicus [22] = assay: compound was tested in vivo for 5-HTP accumulation in hemispheres (cortex) against reserpine-pretreated rats; inactive at the highest dose tested; type: functional
D(3) dopamine receptor [23] = molecular target: T3, D(3) dopamine receptor; assay: Compound was tested for binding affinity against Dopamine receptor D3 expressed in CHO-K1 cells, using [3H]spiperone as the radioligand.;I = inactive (less than 50% inhibition at 1 uM).; type: cell-based
Rattus norvegicus [24] = assay: compound was tested in vivo for 5-HTP accumulation in hemispheres (cortex) against reserpine-pretreated rats; type: functional
Rattus norvegicus [25] = assay: compound was tested in vivo for 5-HTP accumulation in limbic system against reserpine-pretreated rats; type: functional
Rattus norvegicus [26] = assay: Bioavailability in male Sprague-Dawley rats, after the iv administration at a dose of 1.0(pmol/g/h); type: ADME, organism-based; conditions: in vivo
Rattus norvegicus [27] = assay: Bioavailability in male Sprague-Dawley rats, after the po administration at a dose of 20.0(pmol/g/h); type: ADME, organism-based; conditions: in vivo
[28] = tmax in hours at a iv dose of 1.0(pmol/g/h).; type: ADME, organism-based; conditions: in vivo
[29] = tmax in hours at a po dose of 20.0(pmol/g/h).; type: ADME, organism-based; conditions: in vivo
Rattus norvegicus [30] = assay: The compound was tested in vivo for DOPA accumulation in limbic system against reserpine-pretreated rats;I= inactive at the highest dose tested; type: functional, organism-based
Rattus norvegicus [31] = assay: compound was tested in vivo for DOPA accumulation in corpus striatum against reserpine-pretreated rats; I=inactive at the highest dose tested; type: functional, organism-based
Rattus norvegicus [32] = assay: Oral bioavailability in rat

T3 sequence (P19020 whole entry): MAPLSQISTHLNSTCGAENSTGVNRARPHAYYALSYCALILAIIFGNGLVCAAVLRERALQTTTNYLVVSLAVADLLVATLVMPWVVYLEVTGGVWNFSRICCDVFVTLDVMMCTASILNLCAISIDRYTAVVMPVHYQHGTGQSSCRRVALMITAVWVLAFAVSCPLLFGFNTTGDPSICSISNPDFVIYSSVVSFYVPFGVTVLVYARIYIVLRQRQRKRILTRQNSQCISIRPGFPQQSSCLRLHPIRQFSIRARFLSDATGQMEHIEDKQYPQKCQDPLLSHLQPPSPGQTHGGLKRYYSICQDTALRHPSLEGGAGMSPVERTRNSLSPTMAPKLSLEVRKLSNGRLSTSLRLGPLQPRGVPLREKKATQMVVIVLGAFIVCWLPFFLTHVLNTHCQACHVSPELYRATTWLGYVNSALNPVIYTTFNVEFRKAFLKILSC
Sequence of 5-hydroxytryptamine receptor 1D (P28221 whole entry): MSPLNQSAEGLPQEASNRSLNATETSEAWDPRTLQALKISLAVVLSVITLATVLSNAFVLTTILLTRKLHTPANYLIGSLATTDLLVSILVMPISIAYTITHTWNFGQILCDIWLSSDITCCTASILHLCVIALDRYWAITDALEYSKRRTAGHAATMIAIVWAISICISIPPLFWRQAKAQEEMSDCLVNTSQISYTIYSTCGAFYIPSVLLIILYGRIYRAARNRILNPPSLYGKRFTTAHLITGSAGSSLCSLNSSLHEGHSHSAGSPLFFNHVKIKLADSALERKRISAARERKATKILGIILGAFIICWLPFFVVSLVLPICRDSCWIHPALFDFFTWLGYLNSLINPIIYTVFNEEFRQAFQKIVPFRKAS
Sequence of 5-hydroxytryptamine receptor 1B (P28222 whole entry): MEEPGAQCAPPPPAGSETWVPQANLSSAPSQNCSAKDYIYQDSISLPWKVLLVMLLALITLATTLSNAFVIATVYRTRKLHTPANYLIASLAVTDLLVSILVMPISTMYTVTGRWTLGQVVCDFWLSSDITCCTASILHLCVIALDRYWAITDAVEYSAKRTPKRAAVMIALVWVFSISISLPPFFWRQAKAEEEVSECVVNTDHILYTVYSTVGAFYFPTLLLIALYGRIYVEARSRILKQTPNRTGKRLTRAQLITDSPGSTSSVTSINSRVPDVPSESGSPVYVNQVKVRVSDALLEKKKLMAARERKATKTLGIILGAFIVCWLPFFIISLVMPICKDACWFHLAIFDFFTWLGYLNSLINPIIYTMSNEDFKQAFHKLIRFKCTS
T2 sequence (P61169 whole entry): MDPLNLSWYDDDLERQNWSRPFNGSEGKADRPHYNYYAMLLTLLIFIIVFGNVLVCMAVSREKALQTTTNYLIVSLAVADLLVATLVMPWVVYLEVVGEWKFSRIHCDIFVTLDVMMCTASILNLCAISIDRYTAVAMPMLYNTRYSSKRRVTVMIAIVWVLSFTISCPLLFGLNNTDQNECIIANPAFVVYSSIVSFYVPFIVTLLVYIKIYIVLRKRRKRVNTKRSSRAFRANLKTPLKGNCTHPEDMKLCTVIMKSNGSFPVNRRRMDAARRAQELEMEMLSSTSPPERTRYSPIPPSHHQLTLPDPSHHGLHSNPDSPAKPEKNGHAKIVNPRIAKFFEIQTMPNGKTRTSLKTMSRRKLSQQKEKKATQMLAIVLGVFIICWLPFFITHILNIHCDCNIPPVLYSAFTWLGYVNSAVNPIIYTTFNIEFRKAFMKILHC

Compound	Ki [1] [nM]	Ki [2] [nM]	Ki [3] [nM]	Ki (D(2) dopamine receptor [4]) [nM]	Ki (D(3) dopamine receptor [5]) [nM]	Ki (D(2) dopamine receptor [12]) [nM]	ED50 (Rattus norvegicus [16]) [µmol/kg]	ED50 (Rattus norvegicus [19])	also measured
CCCN(CCC)C1CCc2ccc3[nH]cc(C(=O)C(F)(F)F)c3c2C1 (stereo not drawn)	20	279	112	544	675	–	–	–	ED50 (Rattus norvegicus [6]): 6.5 µmol/kg; ED50 (Rattus norvegicus [7]): 16.3 µmol/kg; ED50 (Rattus norvegicus [8]): 12.6 µmol/kg; ED50 (Rattus norvegicus [9]): 12.6 µmol/kg; ED50 (Rattus norvegicus [10]): inactive; ED50 (Rattus norvegicus [11]): 20.8 µmol/kg
CCCN(CCC)C1CCc2cc(F)c3[nH]cc(C=O)c3c2C1 (stereo not drawn)	0.5	82	4.6	–	–	65	0.042	–	Ki (D(3) dopamine receptor [13]): 65 nM; ED50 (Rattus norvegicus [14]): inactive; ED50 (Rattus norvegicus [15]): Weak activity; ED50 (Rattus norvegicus [17]): 0.027 µmol/kg; ED50 (Rattus norvegicus [18]): 0.079 µmol/kg
CCCN(CCC)[C@H]1CCc2cc(F)c3[nH]cc(C=O)c3c2C1	0.8	179	34	199	78	–	–	inactive	ED50 (Rattus norvegicus [20]): 0.17 µmol/kg; ED50 (Rattus norvegicus [21]): 0.23 µmol/kg; ED50 (Rattus norvegicus [22]): 0.32 µmol/kg
CCCN(CCC)C1CCc2ccc3[nH]cc(S(C)(=O)=O)c3c2C1 (stereo not drawn)	11	373	52	–	–	265	–	–	Ki (D(3) dopamine receptor [23]): Not Active
CCCN(CCC)[C@@H]1CCc2cc(F)c3[nH]cc(C=O)c3c2C1	0.3	–	4.4	48	55	–	0.083	inactive	ED50 (Rattus norvegicus [24]): 0.084 µmol/kg; ED50 (Rattus norvegicus [25]): 0.078 µmol/kg
CCCN(CCC)C1CCc2cccc(O)c2C1 (stereo not drawn) [8-OH-DPAT]	–	–	–	1130	333	–	–	inactive	AUC (Rattus norvegicus [26]): 213 pM ml-1; AUC (Rattus norvegicus [27]): 104 pM ml-1; Tmax [28]: 3 min; Tmax [29]: 29 min; ED50 (Rattus norvegicus [30]): inactive; ED50 (Rattus norvegicus [31]): inactive; F (Rattus norvegicus [32]): 2.4%
